# US8518635B2, “Regulation of protein activity by reversible acetylation” (The J. David Gladstone Institutes, priority 2006, dated 2013)
# Entries after “also recorded” stand apart in the source; their conditions may differ.
# Legend:
# bacterial sirtuins = biological target: T1, bacterial sirtuins (Escherichia coli, UniProt P75960); experiment: Expression of recombinant human AceCS2 in nicotinamide-treated E. coli, acetyl-lysine immunoblot; format: cell-based
# T1 construct: endogenous in cells; host or cells: E. coli DH5alpha (Invitrogen)
# T1 sequence (P75960 whole entry): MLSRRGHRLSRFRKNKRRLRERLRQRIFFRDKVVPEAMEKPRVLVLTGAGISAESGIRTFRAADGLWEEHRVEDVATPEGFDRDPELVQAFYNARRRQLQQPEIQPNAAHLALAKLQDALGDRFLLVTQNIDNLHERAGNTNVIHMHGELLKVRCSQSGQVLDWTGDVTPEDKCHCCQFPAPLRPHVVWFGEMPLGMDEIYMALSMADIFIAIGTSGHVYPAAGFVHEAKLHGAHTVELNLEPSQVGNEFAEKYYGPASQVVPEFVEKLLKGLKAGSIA
# Protocol: E. coli DH5α bacteria (Invitrogen) transformed, e.g., with either pTrcHis2C-SIRT3(102-399), pTrcHis2C-SIRT3-H248Y(102-399), pTrcHis2C-SIRT5(12-310), pTrcHis2C-SIRT5(39-310) or pTrcHis2C-AceCS2(38-689) were grown to an A600 nm=0.4, and induced with 0.5 mM isopropyl-β-D-thiogalactopyranoside (IPTG) at 25° C. for 16 h. 6×His-tagged proteins were purified under native conditions at 4° C. using Ni-NTA agarose (Qiagen, Valencia, Calif.). Purified proteins were dialyzed (e.g., against sirtuin storage buffer […], 4 mM MgCl2, 50 mM NaCl, 0.5 mM DTT, 5% glycerol (v/v) or AceCS2 storage buffer [50 mM Tris-HCl (pH 8.0), 4 mM MgCl2, 10% glycerol (v/v)], adjusted to 0.5 g/L and stored frozen at −80° C. To induce acetylation of recombinant AceCS2, nicotinamide (50 mM) was added during protein expression (16 h, 25° C.).
# Immunoblots were developed with enhanced chemiluminescence (Amersham Pharmacia Biosciences) or West SuperSignal reagent (Pierce). Membranes were either nitrocellulose or polyvinylidene fluoride (PVDF) (Immun-Blot; Bio-Rad Laboratories).
# AceCS2 = experiment: Acetyl-CoA synthetase activity of purified AceCS2; format: biochemical, human; settings: hyperacetylated AceCS2 from nicotinamide-treated E. coli vs untreated
# Protocol: E. coli DH5α bacteria (Invitrogen) transformed, e.g., with either pTrcHis2C-SIRT3(102-399), pTrcHis2C-SIRT3-H248Y(102-399), pTrcHis2C-SIRT5(12-310), pTrcHis2C-SIRT5(39-310) or pTrcHis2C-AceCS2(38-689) were grown to an A600 nm=0.4, and induced with 0.5 mM isopropyl-β-D-thiogalactopyranoside (IPTG) at 25° C. for 16 h. 6×His-tagged proteins were purified under native conditions at 4° C. using Ni-NTA agarose (Qiagen, Valencia, Calif.). […]
# The activity of purified AceCS2 was measured as described (Jones & Lipmann, 1955, in Methods in Enzymology (Academic Press, Vol. 1, pp. 585-591; Barak et al., 2004, J Mol Biol 342:383-401). Each reaction (0.5 mL) contained 100 mM hydroxylamine (pre-neutralized with KOH), 50 mM Tris-HCl (pH 8.0), 20 mM potassium acetate, 10 mM MgCl2, 10 mM ATP, 2 mM DTT and 1 mM CoA. All chemicals (Sigma) were of the highest purity available. Reactions were pre-incubated at 35° C. for 5 min before the addition of purified AceCS2 (6 μg). After 30 min of incubation, 0.5 mL stop solution (10% (w/v) FeCl3, 3.3% (w/v) trichloroacetic acid in 2 N HCl) were added and reactions were incubated on ice for 2 min. The samples were centrifuged for 2 min at 16,200×g to remove turbidity and the generated color was measured at 540 nm. […]
smiles,measurement,setting,value
NC(=O)c1cccnc1 [nicotinamide],acetylation of mutant AceCS2 protein carrying an arginine residue in position 642,"bacterial sirtuins; E. coli treated with nicotinamide during expression, AceCS2-K642R",did not induce acetylation
same,acetylation of recombinant human AceCS2 (Lys642),"bacterial sirtuins; wild-type E. coli treated with nicotinamide (50 mM) during protein expression, 16 h, 25° C., AceCS2 wild type",hyperacetylation of recombinant human AceCS2; also recorded: significantly increased its levels of acetylation
same,specific activity of AceCS2 purified from bacteria treated or not with nicotinamide,AceCS2,significantly lower specific activity
